From patent US20260158050A1, “USE OF EIDD-1931 OR DERIVATIVE THEREOF IN TREATMENT OF ENTEROVIRUS INFECTION” (ACADEMY OF MILITARY MEDICAL SCIENCES, priority 2022, published 2026) come the findings set out here.

One series deals with RD cells. Kind of series: cytotoxicity test on RD cells. The class given is cell-based, Human. Particulars: 3 days. The procedure: (§1) Human liver tumor cells (Huh7 cells) used in the experiment were purchased from Chinese National Infrastructure of Cell Line Resource. Human […] cells (RD cells) and African green monkey kidney cells (Vero cells) were purchased from ATCC (Cat. No.: CCL-136 and CCL-81, respectively). The above cells were cultured in a cell culture incubator at 37° C. and 5% CO2. The complete culture medium used for cell growth was DMEM high-glucose culture medium (purchased from Gibco, Cat. […] No.: 16000044) and penicillin-streptomycin (purchased from Gibco, Cat. No.: 2321152). The maintenance culture medium used for cell culture was DMEM high-glucose culture medium supplemented with 2% FBS and penicillin-streptomycin. H strain of EV-A71 was purchased from ATCC (Cat. No.: VR-1432). […] The microplate reader, model Spectra Max M5, was purchased from Molecular Devices. […] Finally, the luminescence value of each well was measured using the microplate reader. The inhibition rate of the test compounds at each dilution was calculated as follows: [formula] […] The half-cytotoxic concentrations (CC50) of the test compounds were calculated using the same method, and the select index (SI) was calculated based on EC50 and CC50: SI=CC50/EC50.

The subject of a further series is Huh7 cells. Kind of series: cytotoxicity test on Huh7 cells. The conditions noted are these: 3 days. The class given is cell-based, Human. The procedure: as §1
A further series concerns CV-B3 Nancy. Kind of series: CPE protection, CV-B3 Nancy strain. The class given is cell-based. The conditions noted are these: for EC50: CV-B3 Nancy, Vero cells.
In series [1] the test system is EV-A71. Kind of series: EV-A71 viral load in ICR suckling mice tissues (qRT-PCR). Particulars: 200 mg/kg intraperitoneally once per day, 4th day (FIG. 7). The class given is in vivo.
The next series relates to Vero cells. Description: cytotoxicity test on Vero cells. In kind it is cell-based, African green monkey. The conditions noted are these: 3 days. The procedure:
as §1

The next series deals with CV-A16 190-D1. Description: CPE protection, CV-A16 190-D1 strain. In kind it is cell-based. The conditions noted are these: for EC50: CV-A16 190-D1, RD cells.
Series [2] relates to EV-A71. Kind of series: protection of 1-day-old ICR suckling mice with lethal EV-A71 infection. In kind it is in vivo. Particulars: for protective effect on ICR suckling mice inoculated with a lethal dose of EV-A71: 200, 66.6, 22.2, 7.41 mg/kg intraperitoneally once per day for 7 days. On the procedure: 10 litters of 1-day-old ICR offspring female mice were randomly divided into 10 groups, namely, virus control group (2 groups), EIDD-1931 administration group (4 groups), and EIDD-2801 administration group (4 groups). The dosages of EIDD-1931 and EIDD-2801 were 200 mg/kg, 66.6 mg/kg, 22.2 mg/kg, and 7.41 mg/kg, respectively. Each mouse was challenged with 10^6 PFU intraperitoneally, and administrated the drug intraperitoneally 4 hours later. The mice of virus control group were administrated the drug solvent. And then, the drug was administered once per day for 7 consecutive days. The mice were weighed, and the survival and weight changes in the mice were recorded every day.
Log-Rank was used to calculate the statistical significance of the survival curve. p<0.05 indicated statistical significance.

The test system of the next series is EV-A71 RNA. Kind of series: inhibition of EV-A71 viral RNA replication (qRT-PCR) in RD cells. In kind it is cell-based. The conditions noted are these: 0.1 MOI, 30 hours (FIG. 3 B and D).
The next series relates to EV-A71 VP1 protein. Kind of series: inhibition of EV-A71 VP1 protein synthesis (immunofluorescence, Western blot). The class given is cell-based. The conditions noted are these: Vero cells IF, RD cells Western blot (FIG. 4). On the procedure:
Vero cells were seeded in a 96-well black plate at a density of about 1.0×10^4 per well and cultured at 37° C. and 5% CO2 for 24 hours. Then, EV-A71 virus was diluted to the corresponding concentration with cell maintenance medium and added into the 96-well plate (MOI=1). At the same time, the test compounds EIDD-1931 and EIDD-2801, which had been diluted in advance with cell maintenance medium, were added at the final concentrations of 10 μM, 3 μM and 100 μM, 30 μM, respectively. Then the cells were cultured for 16 hours, the liquid was discarded, 100 μL of 4% formaldehyde was added to each well for fixation for 30 minutes, the fixative was discarded, PBS buffer was added, and the antibody was incubated and labeled for imaging.
RD cells were seeded in a 12-well plate at a density of about 1.0×10^5 per well and cultured at 37° C. and 5% CO2 for 24 hours. Then, EV-A71 virus was diluted to the corresponding concentration with cell maintenance medium and added to the 12-well plate so that the virus content in each well was 0.1 MOI. […] After the protein concentration was determined with BCA protein quantification kit, the corresponding volume of 5×SDS Loading Buffer was added and boiled at 100° C. for 10 minutes to fully denature the protein. […]

Each structure is given as a SMILES string. A value given as a limit tells only on which side of the number the result lay.

In the case of `CC(C)C(=O)OC[C@H]1O[C@@H](n2cc/c(=N\O)[nH]c2=O)[C@H](O)[C@@H]1O` [EIDD-2801], the CC50 with RD cells, in the series on Huh7 cells and in the series on Vero cells was over 100 µM in each case. Further, the “inhibitory activity against CV-B3” value in the series on CV-B3 Nancy was “low inhibitory activity”. For the same compound, the EC50 in the series with CV-B3 Nancy is 87.2 ± 10.8 µM; in the series on CV-A16 190-D1, 44.9 ± 4.23 µM. Further, the “viral loads in tissues or organs (brain, heart, small intestine, liver, hind limb muscle, lung)” value in the series on EV-A71 [1] is given as “significantly reduced”. In addition, in the series with CV-A16 190-D1, the “inhibitory activity against CV-A16” value is given as “low inhibitory activity”. Further, the “time within which the mice died” value with EV-A71 [2] (7.41 mg/kg intraperitoneally) and with EV-A71 [2] (22.2 mg/kg intraperitoneally) was at most 13 days throughout. The survival rate in the series on EV-A71 [2] (66.6 mg/kg intraperitoneally) is given as 67%; in the series with EV-A71 [2] (200 mg/kg intraperitoneally) it was 100%. Further, in the series with EV-A71 [2], the “protective effect on ICR suckling mice inoculated with a lethal dose of EV-A71” value is “dose-dependent protective effect”. Further, in the series on EV-A71 RNA, the “inhibition of replication of EV-A71 RNA” value is given as “dose-dependently inhibited”. In addition, the “inhibition of production of EV-A71 VP1 protein” value with EV-A71 VP1 protein was “dose-dependently inhibit”.

Consider `O=c1nc(NO)ccn1[C@@H]1O[C@H](CO)[C@@H](O)[C@H]1O` [EIDD-1931], for which the CC50 in the series with RD cells amounted to 80.47 ± 0.02 µM; with Huh7 cells, 34.09 ± 0.06 µM; with Vero cells, 14.1 ± 0.43 µM. The 50% effective concentration (EC50) in the series with CV-B3 Nancy amounted to 3.65 ± 0.82 µM; in the series on CV-A16 190-D1 it was 4.14 ± 0.27 µM. In the series with EV-A71 [1], the “viral loads in tissues or organs (brain, heart, small intestine, liver, hind limb muscle, lung)” value is “significantly reduced”. In addition, in the series with EV-A71 [2] (7.41 mg/kg intraperitoneally), the “time within which the mice died” value is at most 12 days. The same compound displayed a survival rate with EV-A71 [2] (22.2 mg/kg intraperitoneally) of 60%. For the same compound, the “protection from the lethal dose of EV-71 virus” value in the series on EV-A71 [2] (66.6 mg/kg intraperitoneally) and in the series on EV-A71 [2] (200 mg/kg intraperitoneally) was “completely protect” each time. Further, the “protective effect on ICR suckling mice inoculated with a lethal dose of EV-A71” value with EV-A71 [2] was “dose-dependent protective effect”. Also, the “weight gain of surviving mice” value in the series on EV-A71 [2] (200, 66.6 and 22.2 mg/kg) is listed as “good weight gain”. In the series with EV-A71 RNA, the “inhibition of replication of EV-A71 RNA” value is “dose-dependently inhibited”. Moreover, the “inhibition of production of EV-A71 VP1 protein” value in the series on EV-A71 VP1 protein is “dose-dependently inhibit”.
